Experimental data reported in patent US9603896B2, “Peptide compounds and methods of production and use thereof” (priority 2012, dated 2017).
Square brackets hold non-standard residues; d marks the D form. Ends that are not written are not given here. Peptide text beside a SMILES is read from it. AEEA = NCCOCCOCC(=O)O

Assays:
[1] = system: Pseudomonas aeruginosa ATCC® 27853™; type: cell-based
Description: The three peptide compounds BCC01-5RMP (SEQ ID NO:21), BCC02-5RMP (SEQ ID NO:22), and BCC03-5RMP (SEQ ID NO:23) were assayed for in vitro bactericidal activity against Pseudomonas aeruginosa, Escherichia coli, Salmonella typhimurium, and Acinetobacter baumannii. […] The CFU remaining at the end of 60 to 180 minute incubation was determined, and the data plotted as a log reduction in CFU/ml.
Tables 4-6 show the results of various peptides and peptide compounds against P. aeruginosa and E. coli strains. Tables 4 and 5 show the results of an investigation of the effects of peptide or peptide compounds BCC03-5RMP (SEQ ID NO:23), BCC03-MP (SEQ ID NO:24) and BCC03-5R (SEQ ID NO:20) against P. aeruginosa ATCC® strain 27853™ and E. coli ATCC® strain 25922™ (American Type Culture Collection, Manassas, Va.). […] Table 6 compares the activity of several other compounds, including the “5R” versions of BCC01, i.e., SEQ ID NO:18 (which comprises SEQ ID NO:1 with five additional arginines), the “5R” version of BCC02 (i.e., SEQ ID NO:19, which comprises SEQ ID NO:2 with five additional arginines), and BCC03-5RMP (SEQ ID NO:23), and BCC03-MP (SEQ ID NO:24, i.e., without the five additional R residues). The data generally indicate the superiority of BCC03-5RMP (SEQ ID NO:23) against E. coli, and the superiority of the 5R or 5RMP versions of the peptide over the “AEEA only” peptide against P. aeruginosa.
(§1) For FIGS. 10-13, in vitro bactericidal assays were performed using a starting inoculum of 1×10^6 CFU/ml of the bacterial suspension. The CFU remaining at the end of the 60-180 minute incubation was determined, and the data was plotted as log reduction in CFU/ml.
(§2) In particular, each of the test peptides (CAP37 peptides 120-146WR, 120-146WH, and 95-122 (SEQ ID NOs: 30, 31, and 26, respectively)) was used at 25, 12.5, 6.25, and 3.12 μM. Gentamicin was used at 4 μg/ml. 1×10^6/ml Acinetobacter baumannii ATCC® BAA-747″ or Pseudomonas aeruginosa ATCC® 27853™ (American Type Culture Collection, Manassas, Va.) were incubated with the peptides, negative buffer control (tryptone saline), and positive control gentamicin at pH 5.5 or 7.2. A 60 minute incubation was used for Acinetobacter baumannii ATCC® BAA747™, while a 180 minute incubation was used for Pseudomonas aeruginosa ATCC® 27853™. 50 μl aliquots were plated out on agar plates and incubated overnight. Colony forming units were counted after overnight incubation and CFU/ml calculated.
For FIG. 14, 1×10^6/ml Pseudomonas aeruginosa ATCC® 27853™ were incubated with each of the test peptides (CAP37 peptides 120-146WR, 120-146WH, 120-146QR, 120-146QH, 120-146QR-5RMP, and 120-146QH-5RMP (SEQ ID NOs: 30, 31, 28, 29, 32, and 33, respectively)) at 150, 75, and 37.5 μg/ml, or negative buffer control (tryptone saline), for 180 minutes at pH 5.5. 50 μl aliquots were plated out on agar plates and incubated overnight. Colony forming units were counted after overnight incubation and CFU/ml calculated.

[2] = system: P. aeruginosa (ATCC® 27853™); experiment: Pseudomonas keratitis model in the mouse eye; type: in vivo
Description: A circular wound was created on the mouse cornea by removing the epithelium and infected with 10^5 colony forming units (CFU) of P. aeruginosa (ATCC® 27853™ (American Type Culture Collection, Manassas, Va.)). Infected wounds were treated with saline (0.9% sodium chloride, vehicle control) or saline containing indicated concentrations of peptide every 15 minutes for 2 hours, then every 30 minutes for 3 hours on the first day. Infected wounds were treated twice on the second day and once on the third day. Mice were killed at 48 hours post-infection, and CFU/eye were quantified. The means were plotted and are representative of 5 to 9 mice per group. Mann Whitney test was performed for each group as compared to the saline control group. *P=0.014.
A circular wound (2 mm) was created on the mouse cornea by removing the epithelium and infecting the wound with 10^5 CFU of P. aeruginosa (ATCC® 27853™ (American Type Culture Collection, Manassas, Va.)). Infected wounds were treated with saline or saline containing indicated concentrations of peptide every 15 minutes for 2 hours, then every 30 minutes for 3 hours on the first day. Infected wounds were treated twice on the second day and once on the third day. Mice were killed at 48 hours post-infection, and the colony forming units per eye (CFU/eye) were quantified. The means are plotted and are representative of 5 to 9 mice per group. Mann Whitney test was performed for each group as compared to the saline control group.
For FIGS. 15-17, in vivo bactericidal activity of the peptides was also investigated using the standard Pseudomonas keratitis model in the mouse eye (FIGS. 15-17). Peptides 120-146QR-5RMP (SEQ ID NO:32), 120-146WH (SEQ ID NO:31), and 120-146WR (SEQ ID NO: 30) were applied topically at doses of 2, 5, 10, and 20 mg/ml to the wounded cornea that had been infected with 10^5 CFU of Pseudomonas aeruginosa. The efficacies of the peptides were compared to treatment with the vehicle control. Mice were euthanized at 48 hours post infection, and the CFU/eye were quantified.

[3] = system: human corneal epithelial cell (HCEC); experiment: HCEC chemotaxis, modified Boyden chemotaxis chamber assay; type: cell-based; details: for migration of HCECs vs buffer control: 120-146QH at 10^−4, 10^−6, 10^−8, 10^−10 M, 120-146QR at 10^−6, 10^−8 M, HB-EGF 50 ng/ml, rCAP37 250 ng/ml, 3 hours at 37° C; for migration compared with the whole CAP37 protein: 120-146QH at 10^−6 M and 10^−8M
Description: The effect of buffer control (0.1% BSA in Gey's buffer), heparin binding-epidermal growth factor (HB-EGF, 50 ng/ml), recombinant CAP37 (rCAP37, 250 ng/ml), 120-146QH (10^−12M, 10^−10 M, 10^−8 M, 10^−6M, and 10^−4M,) and 120-146QR (10^−10M, 10^−8M, 10^−6M, and 10^−4M) on HCEC chemotaxis was determined by the modified Boyden chemotaxis chamber method. HCEC chemotaxis was measured in response to HB-EGF, rCAP37, and peptides 120-146QH (SEQ ID NO:29) and 120-146QR (SEQ ID NO:28) after incubation for 3 hours at 37° C. Chemotaxis is expressed as a percent migration. The buffer control (no chemoattractant) is arbitrarily assigned the value of 100% migration. Data are expressed as means±SEM and are calculated from 6 observations for each test point. **P<0.01 by Wilcoxon signed-rank test as compared to controls.
Chemotaxis assays were performed using the modified Boyden chemotaxis chamber assay. Peptide 120-146QH was used at 10^−4 M, 10^−6 M, 10^−8 M, 10^−10 M, and 10^−12 M, and peptide 120-146QR was used at 10^−4 M, 10^−6M, 10^−8M, and 10^−10 M.

[4] = system: Acinetobacter baumannii ATCC® BAA-747™; experiment: In vitro bactericidal assay (CFU remaining, log reduction); type: cell-based; details: for reduction of CFU/ml: 60 minutes, highest peptide concentrations (25 μM)
Description: The three peptide compounds BCC01-5RMP (SEQ ID NO:21), BCC02-5RMP (SEQ ID NO:22), and BCC03-5RMP (SEQ ID NO:23) were assayed for in vitro bactericidal activity against Pseudomonas aeruginosa, Escherichia coli, Salmonella typhimurium, and Acinetobacter baumannii. The starting inoculum for all experiments was 1×10^6 colony forming units (CFU)/ml. The CFU remaining at the end of 60 to 180 minute incubation was determined, and the data plotted as a log reduction in CFU/ml.
as §1, §2

CC(C)C[C@H](NC(=O)[C@H](CCCNC(=N)N)NC(=O)CNC(=O)CNC(=O)[C@H](CO)NC(=O)[C@H](CCCNC(=N)N)NC(=O)[C@H](CCC(N)=O)NC(=O)[C@H](CO)NC(=O)CNC(=O)[C@H](Cc1c[nH]c2ccccc12)NC(=O)CNC(=O)[C@H](C)NC(=O)[C@@H](NC(=O)[C@H](CCC(N)=O)NC(=O)[C@H](CS)NC(=O)[C@H](CCCNC(=N)N)NC(=O)[C@@H](NC(=O)CNC(=O)[C@H](CCCNC(=N)N)NC(=O)[C@H](CCCNC(=N)N)NC(=O)[C@H](CCCNC(=N)N)NC(=O)[C@H](CCCNC(=N)N)NC(=O)COCCOCCNC(=O)COCCOCCN)[C@@H](C)O)C(C)C)C(=O)N[C@@H](CO)C(=O)N[C@@H](CCCNC(=N)N)C(=O)N[C@@H](Cc1ccccc1)C(=O)N1CCC[C@H]1C(=O)N[C@@H](CCCNC(=N)N)C(=O)N[C@@H](Cc1ccccc1)C(=O)N[C@H](C(=O)N[C@@H](CC(N)=O)C(=O)N[C@H](C(=O)N[C@@H](CCCNC(=N)N)C(=O)O)C(C)C)C(C)C [120-146QR-5RMP] (H-[AEEA][AEEA]RRRRGTRCQVAGWGSQRSGGRLSRFPRFVNVR-OH)
reduction in CFU (FIG. 14) ([1]; pH 5.5, 180 minutes, 75 μg/ml): ~6 log | mice with no viable bacteria in the eye after treatment ([2]; 10 and 20 mg/ml groups together): Six of the 10 | CFU/eye at 48 hours post infection vs saline ([2]; topical, doses of 10 and 20 mg/ml): significantly reduced the CFU/eye

GTRCQVAGWGSQHSGGRLSRFPRFVNV [Peptide 120-146QH]
migration of HCECs vs buffer control [3]: significantly increase migration | migration compared with the whole CAP37 protein [3]: comparable to the migration obtained with the whole CAP37 protein

GTRCQVAGWGSQRSGGRLSRFPRFVNV [Peptide 120-146QR]
migration of HCECs vs buffer control [3]: significantly increase migration | migration compared with the whole CAP37 protein [3]: less than the migration obtained with the whole protein

GTRCQVAGWGSWRSGGRLSRFPRFVNV [Peptide 120-146WR]
activity against A. baumannii ([4]; 12.5 μM): highly active | activity against A. baumannii ([4]; 25 μM): highly active | reduction of CFU/ml ([4]; pH 5.5): ~4 logs | reduction of CFU/ml ([4]; pH 7.2): ~5.5 logs | activity against P. aeruginosa ([1]; 120-146WR at 25 μM, gentamicin 4 μg/ml): highly active | reduction of CFU (FIG. 14) ([1]; pH 5.5, 180 minutes, highest concentrations (150 μg/ml)): 6 logs | reduction of CFU/ml ([1]; pH 7.2, 180 minutes, highest concentrations of peptides (25 μM)): 6 logs | bactericidal activity against Pseudomonas aeruginosa ([1]; pH 7.2, 180 minutes, peptides at 25 μM): as effective as the standard antibiotic gentamicin | infection (CFU/eye) at 48 hours post infection vs saline ([2]; topical, 5, 10, and 20 mg/ml): significantly reduced infection
